Measured values published in paper PMC10520873, “Biochemical investigation of the tryptophan biosynthetic enzyme anthranilate phosphoribosyltransferase in plants” (The Journal of Biological Chemistry, 2023).

What was measured:
Format in all cases: biochemical
PvPAT1 [1] = molecular target: T1, PvPAT1 (Pistacia vera, UniProt Z9K6G7Q8L5); assay: coupled pyrophosphate release to NADH oxidation, […] nm; Michaelis-Menten fit; conditions: 1 mM PR-PPi, 45 mM imidazole HCl pH 7.4, 30 °C
T1 construct: codon-optimized gene in pET28a, His-tagged, E. coli BL21 (DE3), Ni-NTA
T1 sequence (Z9K6G7Q8L5 1-311): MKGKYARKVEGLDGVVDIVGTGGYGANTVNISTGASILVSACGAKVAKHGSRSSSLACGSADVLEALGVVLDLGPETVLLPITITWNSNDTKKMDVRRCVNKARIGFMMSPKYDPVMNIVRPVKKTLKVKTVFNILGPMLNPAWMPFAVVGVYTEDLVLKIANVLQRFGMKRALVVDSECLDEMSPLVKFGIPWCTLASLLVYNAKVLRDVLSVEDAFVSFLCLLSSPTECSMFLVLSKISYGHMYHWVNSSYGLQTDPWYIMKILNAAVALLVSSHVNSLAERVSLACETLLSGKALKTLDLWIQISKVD

SmPAT1 [2] = molecular target: T2, SmPAT1 (Selaginella moellendorffii, UniProt Z9CFY1Y489); assay: EnzChek pyrophosphate assay (PNP-coupled, […] nm)
T2 construct: gene PAT1; codon-optimized gene in pET28a, His-tagged, E. coli BL21 (DE3), Ni-NTA

PpPAT1 [3] = molecular target: T3, PpPAT1 (Physcomitrium patens, UniProt A9T6I7); assay: EnzChek pyrophosphate assay (PNP-coupled, […] nm)
T3 construct: gene LOC112294424; codon-optimized gene in pET28a, His-tagged, E. coli BL21 (DE3), Ni-NTA

SmPAT1 [4] = molecular target: T2, SmPAT1; assay: coupled pyrophosphate release to NADH oxidation, […] nm; substrate inhibition fit; conditions: 1 mM PR-PPi, 45 mM imidazole HCl pH 7.4, 30 °C
AtPAT1 = molecular target: T4, AtPAT1 (Arabidopsis thaliana, UniProt Q02166); assay: as above; conditions: 1 mM PR-PPi, 45 mM imidazole HCl pH 7.4, 30 °C
T4 construct: gene PAT1; codon-optimized gene in pET28a, His-tagged, E. coli BL21 (DE3), Ni-NTA

PpPAT1 [5] = molecular target: T3, PpPAT1; assay: as above; conditions: 1 mM PR-PPi, 45 mM imidazole HCl pH 7.4, 30 °C
CsPAT1 = molecular target: T5, CsPAT1 (Citrus sinensis, UniProt A0ACB8LSF1); assay: as above; conditions: 1 mM PR-PPi, 45 mM imidazole HCl pH 7.4, 30 °C
T5 construct: gene KPL71_006645; codon-optimized gene in pET28a, His-tagged, E. coli BL21 (DE3), Ni-NTA

JrPAT1 = molecular target: T6, JrPAT1 (Juglans regia, UniProt A0A6P9ES87); assay: as above; conditions: 1 mM PR-PPi, 45 mM imidazole HCl pH 7.4, 30 °C
T6 construct: gene LOC109021987; codon-optimized gene in pET28a, His-tagged, E. coli BL21 (DE3), Ni-NTA

PvPAT1 [6] = molecular target: T1, PvPAT1; assay: as above; conditions: 1 mM PR-PPi, 45 mM imidazole HCl pH 7.4, 30 °C

Work on Nc1c(O)cccc1C(=O)O [3-hydroxyanthranilate] yielded a Km (PvPAT1 [1]; 3-HAA 0-0.5 mM) of 50 ± 5.3 µM.

Work on N[C@@H](Cc1ccccc1)C(=O)O [Phe] yielded an IC50 (SmPAT1 [2]) of 1980 µM.

N[C@@H](Cc1ccc(O)cc1)C(=O)O [Tyr] gave an IC50 (PpPAT1 [3]) of 1180 µM.

In the case of Nc1ccccc1C(=O)O [anthranilate], the “Ki” value (SmPAT1 [4]) is reported as 3600 ± 800 µM, the “Ki” value (AtPAT1) is reported as 4300 ± 400 µM and the Km (PvPAT1 [1]; anthranilate 0-0.75 mM) is reported as 32.1 ± 4.7 µM. The “Ki” value (PpPAT1 [5]) was > 5000 µM, the “Ki” value (CsPAT1) was 4100 ± 600 µM and the “Ki” value (JrPAT1) was > 5000 µM. The “Ki” value (PvPAT1 [6]) was 1800 ± 400 µM.
